Results reported in patent US20150141523A1, “COMPOUNDS FOR USE IN THE TREATMENT OF AUTOIMMUNE INFLAMMATORY DISEASE” (Venantius Limited, priority 2012, published 2015).

Columns and labels:
[1] = tested on: IL-2 secretion from Jurkat T cells; assay: IL-2 secretion from activated Jurkat T cells (ELISA); format: cell-based, human; settings: for IL-2 [ ]pg/ml (1) / IL-2 % Control (1): experiment (1); for IL-2 % Control (1) / IL-2 % Control (2) / IL-2 % Control (3): relative to DMSO 0.1%; for IL-2 [ ]pg/ml (2) / IL-2 % Control (2): experiment (2); for IL-2 [ ]pg/ml (3) / IL-2 % Control (3): experiment (3)
Method: The T cell line Jurkat 6.1 (ATCC) was used. Cells were pre-treated for 30 min with 1 μM or 10 μM of the respective compound and then stimulated with plate-bound anti-CD3 (BD Pharmingen) and anti-CD28 (AnCell). DMSO was used as vehicle control. The immunosuppressive agent Cyclosporine A was used as a control for inhibition of IL-2 production. After 24 hs the supernatant was collected and IL-2 secretion was measured by ELISA.
Jurkat T cells were cultured in RMPI-1640 medium containing 10 % Foetal Bovine Serum, Penicillin/Streptomycin and L-Glutamine in T-75cm2 flasks at 37° C. and 5 % CO2. Cells were seeded into new culture flasks at a density of 1-3×10^5 cells per ml and maintained at a density of 0.5−1×10^6 cells per ml.
(§1) (A) Anti-TCR/CD28-mediated activation of Jurkat cells: Experiments involving anti-TCR/CD28-mediated activation of Jurkat T lymphocytes were carried out on 24-well cell culture plates. The plates were coated with a 1/100 dilution of rabbit anti-mouse IgG in sterile PBS (1×) and incubated overnight at 4OC. Unbound antibody was aspirated and the wells were gently rinsed with warm sterile PBS. The PBS was aspirated and the wells were coated with a 1/100 dilution of anti-TCR antibody (OKT-3) and a 1/200 dilution of anti-CD28 antibody (both antibodies pre-mixed prior to addition to the plates) in sterile PBS. The plates were then incubated for 1-2 hours at 37° C. Unbound antibody was aspirated and the wells were gently rinsed with warm PBS. The PBS was left on the plate until the Jurkat cells were ready to be added to the plate. The Jurkat cells were harvested from the T-75cm2 cell culture flasks and resuspended at a density of 0.5×10^6 cells per ml. The compounds were dissolved at a specified stock concentration (see results section) and diluted to the required concentration by adding the drug to the cell suspension. The cells were then pre-incubated with the compounds or with an equivalent volume of drug vehicle control (DMSO) for 30 minutes prior to adding the cell suspension to the antibody-coated plates. Cyclosporine A (1 μM) was used as a positive control to inhibit IL-2 production from activated T cells and was preincubated with the 6 cells as described above in parallel. The cells were then incubated on the plates with the acti-TCR/CD28 antibodies for 24 hours at 37° C. and 5% CO2 in a humidified atmosphere. After 24 hours, the cell suspension was removed from the plates and the cells were pelleted by centrifugation. The cell culture supernatant was saved and analysed for secreted IL-2 by ELISA. The cell pellet was saved and cell viability was measured using Acridine Orange/Ethidium Bromide cell viability staining solution.
(B) PHA/PMA-mediated activation of Jurkat cells Jurkat cells were resuspended at a concentration of 0.5×10^6 cells per ml and the Pharmatrin compounds at the desired concentration or an equivalent volume of drug vehicle control (DMSO) were added to the cells and incubated for 30 minutes. Cyclosporine A (1 ∝M) was used as a positive control to inhibit IL-2 production from activated T cells and was preincubated with the cells as described above in parallel. PHA and PMA were added to the cell suspension (10 ∝g/ml and 10 ng/ml respectively) and the cells were plated onto uncoated 24-well plates. The cells were incubated on the plates for 24 hours at 37° C. and 5 % CO2 in a humidified atmosphere. After 24 hours, the cell suspension was removed from the plates and the cells were pelleted by centrifugation. The cell culture supernatant was saved and analysed for secreted IL-2 by ELISA.
The cell culture supernatants were analysed for IL-2 by ELISA (96-well plate format) using the Human IL-2 ELISA kit from R&D Systems Europe. This assay was carried out using the standard protocol outlined by the company. Samples and standards (recombinant human IL-2 provided by R&D Systems) were analysed in triplicate. […]

[2] = tested on: Balb/C mice; assay: 5% DSS-induced murine colitis model; format: in vivo, mouse; settings: for inhibition of DAI in DSS-induced colitis: 5% DSS colitis (FIG. 9); for effect on DSS-induced weight loss: 5% DSS colitis, 30 mg/kg p.o. (FIG. 8)
[3] = tested on: Jurkat cells; assay: Jurkat cell viability (Acridine Orange/Ethidium Bromide); format: cell-based
Method: as §1
The cell pellet was resuspended in 20 μl of Acridine Orange/Ethidium Bromide staining solution. A portion of this cell suspension was placed on a haemocytometer and analysed under a fluorescence microscope. […] The ratio of viable cells: non-viable cells were calculated for each activation time point/drug treatment.

Compound	IL-2 [ ]pg/ml (1) ([1]; 0.3 uM)	IL-2 % Control (1) ([1]; 0.3 uM)	IL-2 [ ]pg/ml (2) ([1]; 0.3 uM)	IL-2 % Control (2) ([1]; 0.3 uM)	IL-2 [ ]pg/ml (3) ([1]; 0.3 uM)	IL-2 % Control (3) ([1]; 0.3 uM)	IL-2 [ ]pg/ml (1) ([1]; 1 uM)	IL-2 % Control (1) ([1]; 1 uM)	IL-2 [ ]pg/ml (2) ([1]; 1 uM)	IL-2 % Control (2) ([1]; 1 uM)	IL-2 [ ]pg/ml (3) ([1]; 1 uM)	IL-2 % Control (3) ([1]; 1 uM)	IL-2 [ ]pg/ml (1) ([1]; 3 uM)	IL-2 % Control (1) ([1]; 3 uM)	IL-2 [ ]pg/ml (2) ([1]; 3 uM)	IL-2 % Control (2) ([1]; 3 uM)	IL-2 [ ]pg/ml (3) ([1]; 3 uM)	IL-2 % Control (3) ([1]; 3 uM)	IL-2 [ ]pg/ml (1) ([1]; 10 uM)	IL-2 % Control (1) ([1]; 10 uM)	further results
O[C@H]1c2ccccc2C[C@]1(Cc1ccccc1)C1=Cc2ccccc2C1 (single isomer, unassigned) [Compound 9]	111.72 pg/mL	152.99%	73.45 pg/mL	112.48%	139.63 pg/mL	106.13%	120.56 pg/mL	165.09%	65.45 pg/mL	100.23%	114.13 pg/mL	86.75%	78.78 pg/mL	107.88%	81.75 pg/mL	59.11%	53.47 pg/mL	40.64%	37.72 pg/mL	51.66%	IL-2 [ ]pg/ml (2) ([1]; 10 uM): 85.60 pg/mL; IL-2 % Control (2) ([1]; 10 uM): 131.09%; IL-2 [ ]pg/ml (3) ([1]; 10 uM): 36.16 pg/mL; IL-2 % Control (3) ([1]; 10 uM): 27.48%; IL-2 [ ]pg/ml (1) ([1]; 30 uM): -4.56 pg/mL; IL-2 % Control (1) ([1]; 30 uM): −6.24%; IL-2 [ ]pg/ml (2) ([1]; 30 uM): 16.35 pg/mL; IL-2 % Control (2) ([1]; 30 uM): 25.04%; IL-2 [ ]pg/ml (3) ([1]; 30 uM): -3.88 pg/mL; IL-2 % Control (3) ([1]; 30 uM): −2.95%; IL-2 [ ]pg/ml (1) ([1]; 100 uM): -3.72 pg/mL; IL-2 % Control (1) ([1]; 100 uM): −5.10%; IL-2 [ ]pg/ml (2) ([1]; 100 uM): -5.75 pg/mL; IL-2 % Control (2) ([1]; 100 uM): −8.81%; IL-2 [ ]pg/ml (3) ([1]; 100 uM): -5.28 pg/mL; IL-2 % Control (3) ([1]; 100 uM): −4.01%; inhibition of DAI in DSS-induced colitis [2]: only the S,S-enantiomer 10 caused a significant; effect on DSS-induced weight loss [2]: not
O[C@@H]1c2ccccc2C[C@@]1(Cc1ccccc1)C1=Cc2ccccc2C1 (single isomer, unassigned) [Compound 10]	79.17 pg/mL	108.41%	88.15 pg/mL	134.99%	58.63 pg/mL	44.56%	64.17 pg/mL	87.87%	57.50 pg/mL	88.06%	104.44 pg/mL	79.39%	71.39 pg/mL	97.76%	54.15 pg/mL	82.92%	100.50 pg/mL	76.39%	42.50 pg/mL	58.20%	IL-2 [ ]pg/ml (2) ([1]; 10 uM): 45.60 pg/mL; IL-2 % Control (2) ([1]; 10 uM): 69.83%; IL-2 [ ]pg/ml (3) ([1]; 10 uM): 80.25 pg/mL; IL-2 % Control (3) ([1]; 10 uM): 61.00%; IL-2 [ ]pg/ml (1) ([1]; 30 uM): 14.17 pg/mL; IL-2 % Control (1) ([1]; 30 uM): 19.40%; IL-2 [ ]pg/ml (2) ([1]; 30 uM): 56.70 pg/mL; IL-2 % Control (2) ([1]; 30 uM): 86.83%; IL-2 [ ]pg/ml (3) ([1]; 30 uM): 46.06 pg/mL; IL-2 % Control (3) ([1]; 30 uM): 35.01%; IL-2 [ ]pg/ml (1) ([1]; 100 uM): -11.33 pg/mL; IL-2 % Control (1) ([1]; 100 uM): −15.52%; IL-2 [ ]pg/ml (2) ([1]; 100 uM): -6.30 pg/mL; IL-2 % Control (2) ([1]; 100 uM): −9.65%; IL-2 [ ]pg/ml (3) ([1]; 100 uM): -0.78 pg/mL; IL-2 % Control (3) ([1]; 100 uM): −0.59%; inhibition of DAI in DSS-induced colitis [2]: significant (P<0.0059) inhibition; effect on DSS-induced weight loss [2]: ameliorated; disease activity index (DAI) ([2]; day 7, mean±SEM, vehicle control 6.833±1.276): 2.333±0.211
(R,S or SR)2-Benzyl-2,3-dihydro-1H,1′H-2,2′-biinden-1-ol [Compound 7]	44.65 pg/mL	218.87%	93.65 pg/mL	143.42%	112.94 pg/mL	85.85%	49.20 pg/mL	241.18%	71.40 pg/mL	109.34%	109.59 pg/mL	83.31%	43.25 pg/mL	212.01%	45.10 pg/mL	69.07%	97.25 pg/mL	73.92%	24.75 pg/mL	121.32%	IL2 release from Jurkat cells [1]: inhibited IL2 release; IL-2 [ ]pg/ml (2) ([1]; 10 uM): 36.75 pg/mL; IL-2 % Control (2) ([1]; 10 uM): 56.28%; IL-2 [ ]pg/ml (3) ([1]; 10 uM): 81.84 pg/mL; IL-2 % Control (3) ([1]; 10 uM): 62.21%; IL-2 [ ]pg/ml (1) ([1]; 30 uM): 10.10 pg/mL; IL-2 % Control (1) ([1]; 30 uM): 49.51%; IL-2 [ ]pg/ml (2) ([1]; 30 uM): 27.80 pg/mL; IL-2 % Control (2) ([1]; 30 uM): 42.57%; IL-2 [ ]pg/ml (3) ([1]; 30 uM): 32.00 pg/mL; IL-2 % Control (3) ([1]; 30 uM): 24.32%; IL-2 [ ]pg/ml (1) ([1]; 100 uM): 1.15 pg/mL; IL-2 % Control (1) ([1]; 100 uM): 5.64%; IL-2 [ ]pg/ml (2) ([1]; 100 uM): -19.30 pg/mL; IL-2 % Control (2) ([1]; 100 uM): −29.56%; IL-2 [ ]pg/ml (3) ([1]; 100 uM): -3.13 pg/mL; IL-2 % Control (3) ([1]; 100 uM): −2.38%; cell viability [3]: without affecting cell viability
